Measurements reported in ChEMBL document CHEMBL1150848, “Radiosumin B, an unusual dipeptide from the cyanobacterium Microcystis aeruginosa” (J Nat Prod, 2001).
Activity calls are given as the source filed them. The calls are words filed in the database; no cut-off is given here.

Columns and labels:
[1] = Inhibition of trypsin
[2] = target: Plasminogen (Homo sapiens) (UniProt P00747); test: Inhibition of plasmin
Chain of Plasminogen (Homo sapiens) (P00747 97-580 limits assumed): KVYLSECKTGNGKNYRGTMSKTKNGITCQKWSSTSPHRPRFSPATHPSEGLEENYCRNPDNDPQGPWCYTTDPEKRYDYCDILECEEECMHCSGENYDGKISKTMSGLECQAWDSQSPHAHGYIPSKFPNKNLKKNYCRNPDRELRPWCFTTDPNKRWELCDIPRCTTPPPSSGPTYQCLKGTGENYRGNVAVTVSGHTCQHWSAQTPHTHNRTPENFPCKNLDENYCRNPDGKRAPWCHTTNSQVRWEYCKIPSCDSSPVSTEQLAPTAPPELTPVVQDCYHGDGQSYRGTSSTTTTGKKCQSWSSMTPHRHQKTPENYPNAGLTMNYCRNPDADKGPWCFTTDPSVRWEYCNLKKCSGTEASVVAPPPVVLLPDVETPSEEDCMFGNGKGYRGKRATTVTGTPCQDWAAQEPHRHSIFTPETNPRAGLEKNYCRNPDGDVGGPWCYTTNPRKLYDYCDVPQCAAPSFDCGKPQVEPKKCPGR
Chain of Plasminogen (Homo sapiens) (P00747 581-810 limits assumed): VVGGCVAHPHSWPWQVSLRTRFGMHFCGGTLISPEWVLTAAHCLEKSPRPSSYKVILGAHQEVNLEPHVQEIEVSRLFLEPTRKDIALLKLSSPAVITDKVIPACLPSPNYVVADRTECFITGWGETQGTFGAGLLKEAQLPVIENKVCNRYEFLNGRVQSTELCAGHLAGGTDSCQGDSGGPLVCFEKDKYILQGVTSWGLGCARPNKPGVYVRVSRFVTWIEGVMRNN

Activity [1]: Active
Activity [2]: Active
SMILES: CN[C@H]1C=C/C(=C/[C@H](NC(C)=O)C(=O)N[C@@H](/C=C2/C=C[C@H](NC(C)=O)CC2)C(=O)O)CC1
